Publication PMC2905701, “Synthesis and Biological Evaluation of New CRH Analogues” (Bioinorganic Chemistry and Applications, 2010)
Non-standard residues stand in square brackets, D forms with d. No end group written: not given here. *: point of attachment. Aib = CC(C)(N)C(=O)O; Propyl = CCC*

How the values were obtained:
CRH-1 receptor = molecular target: T1, CRH-1 receptor (Homo sapiens, UniProt P34998); assay: Binding affinity of h/r-CRH analogues to the CRH-1 receptor; conditions: averages from 3 experiments performed in duplicates
T1 sequence (P34998 24-415): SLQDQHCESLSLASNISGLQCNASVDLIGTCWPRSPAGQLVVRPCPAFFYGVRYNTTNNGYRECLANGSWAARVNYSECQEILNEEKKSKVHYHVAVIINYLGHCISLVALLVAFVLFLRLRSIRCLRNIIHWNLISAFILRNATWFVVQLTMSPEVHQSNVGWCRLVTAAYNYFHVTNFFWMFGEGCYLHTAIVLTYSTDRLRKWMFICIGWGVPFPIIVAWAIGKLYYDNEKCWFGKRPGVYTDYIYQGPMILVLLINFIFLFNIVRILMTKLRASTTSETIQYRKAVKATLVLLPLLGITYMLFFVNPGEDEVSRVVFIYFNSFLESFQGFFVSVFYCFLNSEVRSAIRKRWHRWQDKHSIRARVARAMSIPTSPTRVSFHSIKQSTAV

CRH-R1 = molecular target: T2, CRH-R1 (Homo sapiens, UniProt P34998); assay: Stimulation of cyclic AMP generation (CRE-luciferase activity) in LLC-PK1 cells cotransfected with CRH-R1 and CRE; format: cell-based; conditions: LLC-PK1 cells cotransfected with CRH-R1 and CRE cDNA; peptides 10^-6 to 10^-11 M, 7 hours at 37°C; luciferase read-out; maximum response compared to h/r-CRH; read-out: Biological activity: % Response max/CRH
T2 construct: expressed in transfected cells; host or cells: LLC-PK1 cells (electroporation)
T2 sequence (P34998 24-415): T1 sequence (P34998 24-415)
Experimental: The capacity of CRH and related peptide analogues to stimulate cyclic AMP generation was monitored in LLC-PK1 cells cotransfected with cDNA of CRH-R1 and CRE. For transfection the method of electroporation was applied and 40 millions of LLC-PK1 cells were prepared and washed in cytomix 1X transfection medium. The electroporation medium consisted of 1000 μL of cytomix 2X, 864 μL of sterilized water, 80 μL of ATP 50 mM, 3.2 mg of glutathion, 20 μg of CRH-R1 cDNA and 20 μg of CRE cDNA. 500 μL of the above solution were transferred in the electroporation device and after remaining for 10 minutes a standard growth medium was added (DMEM without phenol red with glutamine, antibiotics, and 10% FCS) to a total volume of 50 mL. The suspension was distributed in […] of 24 wells each, by adding 1 mL per well, and was allowed to pre-incubate for 24 hours. The growth medium was aspirated and replaced with fresh one followed by another preincubation for 24 hours. The cells were then challenged with graded concentrations (10^−6 to 10^−11 M) of the test peptides and incubated for 7 hours at 37°C. After that, the medium with the added peptides was removed, the cells were washed twice with PBS 1X, 100 μL of lysis buffer 1X per well were added, the plates were left at room temperature for 30 minutes and then stored at −80°C overnight. The luciferace activity was measured with the use of a luminometer after the addition of 50 μL of lysed cell preparation and 50 μL of bioluminescence medium per well in a 96 well plate luminometer.

[1] = times more potent than α-helical CRH; cited from earlier work
From the text: Introduction of D-amino acids leading to stabilization of β-turns, can provide analogues with increased potency but not all residues are susceptible to such an alteration, leading even to the opposite effect. However, the D-Phe^12 substitution has proven to be a favorable one especially combined with other advantageous modifications such as the replacement of Met at positions 21 and 38 with Nle.

| Substance | IC50 (CRH-1 receptor) | Emax (CRH-R1) | Potency relative to α-helical CRH [1] |
| --- | --- | --- | --- |
| SEEPPISLDLT[dF]HLLREVLEMARAEQLAQQAHSNRKLC(Propyl)EII-NH2 [Analogue 4, [D-Phe^12, Cys(Pr)^38]CRH] | 35 nM | 60% |  |
| SEEPPISLDLT[dF]HL[Aib]REVLEMARAEQLAQQAHSNRKLMEII-NH2 [Analogue 2, [D-Phe^12, Aib^15]CRH] | 8.4 nM | 60% |  |
| SEEPPISLDLT[dF]H[Aib]LREVLEMARAEQLAQQAHSNRKLMEII-NH2 [Analogue 1, [D-Phe^12, Aib^14]CRH] | 226 nM | 60% |  |
| [D-Phe^12, Nle^21, 38]CRH21-41 |  |  | 15 times |
| [D-Phe^12]CRH |  |  | twice |
